Data published in patent publication US20260001889A1, “COMPOSITIONS USEFUL FOR MODULATING SPLICING” (Skyhawk Therapeutics, Inc., priority 2022, published 2026).

Experiments:
[1] = system: total ATXN3 protein; experiment: ATXN3 Total Protein Assay (Mesoscale Discovery, SK-N-MC cells); format: cell-based, Human; conditions: incubation for 48 hours, MSD assay
Procedure: Example 35: ATXN3 Total Protein Assay
Human neuroblastoma SK-N-MC cells were seeded at 10,000 cells/well in 384 well plates one day prior to compound treatment. The concentrations of compounds were tested at appropriate doses ranging from 30 μM to 0.6 nM. After incubation for 48 hours, the cells were lysed with 25 μL of lysis buffer containing protease inhibitors, and total ATXN3 protein levels were assessed by Mesoscale Discovery (MSD) assay developed with one pair of anti-ATXN3 antibodies. The capture and detect antibodies were raised in mouse and rabbit respectively. Anti-rabbit MSD-ST antibody was used for secondary antibody.
ATXN3 recombinant protein was used for standards. The readouts were captured with 35 μL of MSD read buffer and multi-array 384-well high binding plates.

[2] = system: ATXN3-HiBiT protein; experiment: ATXN3 Total Protein Assay (Kelly-ATXN3-HiBiT luminescence); format: cell-based; conditions: Kelly-ATXN3-HiBiT cells, 48 h after addition of compound
Method in brief: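 Kelly cells with homozygous C-terminal HiBiT knock-in on endogenous ATXN3, 2000 per well, dosed 24 h after seeding. HiBiT lytic luminescence read 48 h after compound; sister plate read with CellTiter-Glo for viability; fold change vs DMSO.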

[3] = system: ATXN3 transcripts containing exon 4; experiment: ATXN3 Quantitative Splicing Assay (qPCR, E4E5 primers/probe); format: cell-based; conditions: Homo sapiens, SK-N-MC cells, compounds for 24 h
Procedure: Example 34: ATXN3 Quantitative Splicing Assay
Human neuroblastoma SK-N-MC cells were plated in 384-well plates at 20,000 cells/well. Twenty-four hours after plating, cells were treated with compounds for 24 h at appropriate concentrations ranging from 30 μM to 0.6 nM (0.300 DMSO). Treated cells were lysed in 15 μL of lysis buffer, and cDNA was synthesized using the Fast Advanced Cells-to-Ct kit. Two […] of each cDNA was used in qPCR reactions to confirm the exon 4 skipped transcripts of ATXN3. A second set of primers/probe E4E5 was used to detect the transcripts containing exon 4. The third set of primers/probe E8E9 was used to detect total gene level of ATXN3. The qPCR reactions were prepared in 384-well plates in 10 μL volume, using TaqMan™ Fast Advanced Master Mix with primers and probes shown in the table below. Reactions were run in a Quant Studio 6 qPCR instrument with default settings.
The primers and probes are listed below in Table 4.

| IC50 [1] [nM] | EC50 [2] [nM] | IC50 [3] [nM] | SMILES |
| --- | --- | --- | --- |
| 101 to 500 | 501 to 5000 | 101 to 500 | N[C@H](Cc1oc2c(NCc3cccs3)cc(Cl)nc2c1Br)[C@H]1CCOC1 (single isomer, unassigned) [Compound 99] |
| 5000 to 10000 | 10000 to 40000 | 501 to 5000 | N[C@H](Cc1oc2c(NCc3cccs3)cc(Cl)nc2c1Br)[C@@H]1CCOC1 (single isomer, unassigned) [Compound 100] |
| 501 to 5000 | 501 to 5000 | 501 to 5000 | N[C@@H](Cc1oc2c(NCc3cccs3)cc(Cl)nc2c1Br)[C@@H]1CCOC1 (single isomer, unassigned) [Compound 214] |
| 10000 to 40000 | 10000 to 40000 | 10000 to 40000 | N[C@@H](Cc1oc2c(NCc3cccs3)cc(Cl)nc2c1Br)[C@H]1CCOC1 (single isomer, unassigned) [Compound 215] |
| 101 to 500 | 101 to 500 | 101 to 500 | CC[C@H](N)Cc1oc2c(NCc3cccs3)cc(Cl)nc2c1C [Compound 13, 2-[(S)-2-aminobutyl]-5-chloro-3-methyl-7-thenylamino-1-oxa-4-azaindene] |
| 101 to 500 | 0.01 to 100 | 101 to 500 | Cc1c(C[C@@H](N)CC2CC2)oc2c(NCc3cccs3)cc(Cl)nc12 [Compound 14, 2-[(S)-2-amino-3-cyclopropylpropyl]-5-chloro-3-methyl-7-thenylamino-1-oxa-4-azaindene] |
| 0.01 to 100 | 0.01 to 100 | 0.01 to 100 | N[C@@H](CO)Cc1oc2c(NCc3cccs3)cc(Cl)nc2c1Br [Compound 20, (R)-2-amino-3-(3-bromo-5-chloro-7-thenylamino-1-oxa-4-aza-2-indenyl)-1-propanol] |
| 0.01 to 100 | 0.01 to 100 | 0.01 to 100 | N[C@@H](CO)Cc1oc2c(NCc3cccs3)cc(Cl)nc2c1Cl [Compound 21, (R)-2-amino-3-(3,5-dichloro-7-thenylamino-1-oxa-4-aza-2-indenyl)-1-propanol] |
| 0.01 to 100 | 0.01 to 100 | 0.01 to 100 | N[C@@H](CO)Cc1oc2c(NCc3ccco3)cc(Cl)nc2c1Br [Compound 22, (R)-2-amino-3-[3-bromo-5-chloro-7-(furfurylamino)-1-oxa-4-aza-2-indenyl]-1-propanol] |
| 0.01 to 100 | 0.01 to 100 | 0.01 to 100 | N[C@@H](CO)Cc1oc2c(NCc3ccco3)cc(Cl)nc2c1Cl [Compound 23, (R)-2-amino-3-[3,5-dichloro-7-(furfurylamino)-1-oxa-4-aza-2-indenyl]-1-propanol] |
| 501 to 5000 | 101 to 500 | 501 to 5000 | N[C@H](Cc1oc2c(NCc3cccs3)cc(Cl)nc2c1Cl)CC(F)(F)F [Compound 25, 2-[(R)-2-amino-4,4,4-trifluorobutyl]-3,5-dichloro-7-thenylamino-1-oxa-4-azaindene] |
| 101 to 500 | 501 to 5000 | 101 to 500 | N[C@H](Cc1oc2c(NCc3ccco3)cc(Cl)nc2c1Br)CC(F)(F)F [Compound 26, 2-[(R)-2-amino-4,4,4-trifluorobutyl]-3-bromo-5-chloro-7-(furfurylamino)-1-oxa-4-azaindene] |
| 501 to 5000 | 501 to 5000 | 501 to 5000 | N[C@H](Cc1oc2c(NCc3ccco3)cc(Cl)nc2c1Cl)CC(F)(F)F [Compound 27, 2-[(R)-2-amino-4,4,4-trifluorobutyl]-3,5-dichloro-7-(furfurylamino)-1-oxa-4-azaindene] |
| 101 to 500 | 101 to 500 | 101 to 500 | Cc1c(C[C@@H](N)CCF)oc2c(NCc3cccs3)cc(Cl)nc12 [Compound 31, 2-[(2R)-2-amino-4-fluorobutyl]-5-chloro-3-methyl-N-(thiophen-2-ylmethyl)furo[3,2-b]pyridin-7-amine] |
| 501 to 5000 |  | 501 to 5000 | Cc1c(C[C@@H](N)[C@@H](C)F)oc2c(NCc3cccs3)cc(Cl)nc12 [Compound 42, 2-[(2R,3R)-2-amino-3-fluorobutyl]-5-chloro-3-methyl-7-thenylamino-1-oxa-4-azaindene] |
| 101 to 500 |  | 101 to 500 | COC[C@H](N)Cc1oc2c(NCc3ccccc3)cc(Cl)nc2c1Br [Compound 47, 2-[(R)-2-amino-3-methoxypropyl]-7-benzylamino-3-bromo-5-chloro-1-oxa-4-azaindene] |
| 101 to 500 |  | 101 to 500 | COC[C@H](N)Cc1oc2c(NCc3nccs3)cc(Cl)nc2c1Br [Compound 49, 2-[(R)-2-amino-3-methoxypropyl]-3-bromo-5-chloro-7-{[(1,3-thiazol-2-yl)methyl]amino}-1-oxa-4-azaindene] |
| 0.01 to 100 |  | 0.01 to 100 | N[C@H](Cc1oc2c(NCc3cccs3)cc(Cl)nc2c1Br)CC1CC1 [Compound 55, 2-[(S)-2-amino-3-cyclopropylpropyl]-3-bromo-5-chloro-7-thenylamino-1-oxa-4-azaindene] |
| 0.01 to 100 |  | 0.01 to 100 | N[C@H](Cc1oc2c(NCc3ccco3)cc(Cl)nc2c1Br)CC1CC1 [Compound 56, 2-[(S)-2-amino-3-cyclopropylpropyl]-3-bromo-5-chloro-7-(furfurylamino)-1-oxa-4-azaindene] |

| SMILES | IC50 [1] [nM] | EC50 [2] [nM] | IC50 [3] [nM] |
| --- | --- | --- | --- |
| Cc1c(C[C@H](C)N)oc2c(NCc3cccs3)cc(Cl)nc12 [Compound 11, 2-[(S)-2-aminopropyl]-5-chloro-3-methyl-7-thenylamino-1-oxa-4-azaindene] | 101 to 500 | 0.01 to 100 | 101 to 500 |
| C[C@H](N)Cc1oc2c(NCc3cccs3)cc(Cl)nc2c1Cl [Compound 16, 2-[(S)-2-aminopropyl]-3,5-dichloro-7-thenylamino-1-oxa-4-azaindene] | 0.01 to 100 | 0.01 to 100 | 0.01 to 100 |
| C[C@H](N)Cc1oc2c(NCc3cccs3)cc(Cl)nc2c1Br [Compound 17, 2-[(S)-2-aminopropyl]-3-bromo-5-chloro-7-thenylamino-1-oxa-4-azaindene] | 0.01 to 100 | 0.01 to 100 | 0.01 to 100 |
| C[C@H](N)Cc1oc2c(NCc3cccs3)cc(Cl)nc2c1C#N [Compound 18, 2-[(S)-2-aminopropyl]-5-chloro-7-thenylamino-1-oxa-4-aza-3-indenecarbonitrile] | 5000 to 10000 | 5000 to 10000 | 10000 to 40000 |
| C[C@H](N)Cc1oc2c(NCc3ccco3)cc(Cl)nc2c1Br [Compound 34, 2-[(S)-2-aminopropyl]-3-bromo-5-chloro-7-(furfurylamino)-1-oxa-4-azaindene] | 0.01 to 100 | 0.01 to 100 | 0.01 to 100 |
| C[C@H](N)Cc1oc2c(NCc3cccs3)cc(C#N)nc2c1Br [Compound 35, 2-[(S)-2-aminopropyl]-3-bromo-7-thenylamino-1-oxa-4-aza-5-indenecarbonitrile] | 101 to 500 | 101 to 500 | 101 to 500 |
| C[C@H](N)Cc1oc2c(NCc3ccco3)cc(C#N)nc2c1Br [Compound 36, 2-[(S)-2-aminopropyl]-3-bromo-7-(furfurylamino)-1-oxa-4-aza-5-indenecarbonitrile] | 501 to 5000 | 501 to 5000 | 501 to 5000 |
| C[C@H](N)Cc1oc2c(NCc3ccco3)cc(Cl)nc2c1Cl [Compound 54, 2-[(S)-2-aminopropyl]-3,5-dichloro-7-(furfurylamino)-1-oxa-4-azaindene] | 0.01 to 100 |  | 101 to 500 |
